According to paper PMC6602202, “Enteroendocrine peptides regulate feeding behavior via controlling intestinal contraction of the silkworm Bombyx mori” (PLoS ONE, 2019):

Legend:
B. mori larvae [1] = settings: cited from earlier work
Text: Among the feeding regulatory peptides in insects, several peptides are known as ‘brain-gut peptides’, which are expressed and produced in the brain and intestinal organs. […] These peptides may regulate not only the physiological functions related to digestion and intestinal lipid metabolisms but also the intestin ... || The myoinhibitory activities of AT and GSRYa-1 and -2 in the foregut (pharynx and esophagus) and hindgut (ileum) (Figs 5E, 5F and 6E) seem to be linked to the delay in feeding initiation in B. mori larvae (Figs 1D and 6B).

D. melanogaster [2] = settings: cited from earlier work
Text: Peptides having C-terminal RYamide sequences constitute a neuropeptide Y (NPY) family, which is conserved both in vertebrates and invertebrate.

D. melanogaster [3] = settings: cited from earlier work; remark: listed apart in the source
Text: (§1) The myoinhibitory activities of AT and GSRYa-1 and -2 in the foregut (pharynx and esophagus) and hindgut (ileum) (Figs 5E, 5F and 6E) seem to be linked to the delay in feeding initiation in B. mori larvae (Figs 1D and 6B).

Schistocerca. gregaria = settings: cited from earlier work
gut = settings: Periplaneta americana; cited from earlier work
Text: (§2) AT-producing EEs (Fig 2C and 2D) and GSRYamide-producing EEs (Fig 2E and 2F) also have the potential to deliver secretory granules containing peptidyl factors to the hemocoel side through a cellular membrane. Those EEs have similar cellular morphology to EEs releasing other arthropod neuropeptide CCAP (Crustacean cardioactive peptide) observed in the American cockroac ...

[4] = test system: foregut of Lacanobia oleracea; settings: cited from earlier work
Text: as §2

[5] = test system: hindgut of Leucophaea maderae; settings: cited from earlier work
Text: as §2

[6] = test system: foregut of Helicoverpa armigera; settings: cited from earlier work
Text: as §2

ileum = assay: Spontaneous contraction of the ileum in dissected open larvae; design: species or system Bombyx mori
Protocol: (§3) The opened head and abdominal portion of 2-day-old fifth-instar larvae (fed ad libitum and non-fed for 16 h) were washed twice with B. mori Ringer’s solution and incubated for 3 min at 27°C to stabilize the movement. After incubation, the contractile movements of the larval foregut and hindgut, particularly the spontaneous contraction of the pharynx and ileum (predominantly contracting area in hindgut) were observed and recorded using a digital microscope USB2.0 DigiScope II v2^TM (CHRONOS, Taipei, Taiwan). 100 μL of B. mori Ringer’s solution was added to the examined gut at 60 s after starting recording. Furthermore, 100 μL of B. mori Ringer’s solution (vehicle control) and 100 μL peptide-containing solution (10^−9–10^−5 M of peptides dissolved in B. mori Ringer’s solution) were exposed over gut at 120 s after a recording start. The contractile movements were analyzed using ImageJ software (https://imagej.net/Fiji) with the Optic flow plug-in (Gaussian window MSE). The direction of contractile movement was represented by the color and arrows described in the ‘Direction’ map. The position of the lines used for the kymograph analyses (x-y, z-w) were determined by Optic flow analyses. The waveform of the kymographs, corresponding to the visible contractions in the recorded movies, were quantified and converted to myograms. The number of contractions in 60 s was defined as the ‘contraction frequency’. Invisible contractions in the recorded movie and extremely small amplitudes in the myograms were considered as no significant contractions. The evaluation of visible contraction was defined by giving a threshold at the half length of the observed amplitude. The effect of synthetic peptides was represented by the ratio of the ‘contraction frequency’ at 60–120 s to 120–180 s (%) due to the extendedly various frequencies by individuality; the pharynx (30-40/60s) and hindgut (20-40/60s). This methodology by kymograph is substantially corresponding to the previously used assays for intestinal contraction. […]

BNGR-A16 [7] = settings: cited from earlier work
[8] = test system: foregut, midgut and hindgut; settings: other insect species; 48 (foregut), 27, 49 (midgut), 50, 51 (hindgut); cited from earlier work
Text: AT was originally isolated from extracts of heads of pharate adult tobacco hornworm, Manduca sexta as an allatoregulatory peptide. […] Consistently, it is possible in other insect species that ...

intestinal contractions = settings: cited from earlier work
Text: as §1

BNGR-A5 = assay: aequorin-based bioluminescent calcium assay, CHO cells expressing BNGR-A5; assay type: cell-based, Bombyx mori; settings: aequorin luminescence 20 s, triplicates, three experiments
Protocol: (§4) Activity of the BNGR-A5 and -16 receptors were analyzed using Chinese hamster ovary (CHO) cells transiently transfected with plasmids for expression of each BNGR, calcium-sensitive reporter aequorin and chimeric G protein that couple with receptor activation to an intracellular Ca^2+-increase independent of the endogenous receptor signaling cascade. The entire open reading frames of BNGR-A5 and -16 were cloned into pcDNA3.1(+) vector (Invitrogen) with a Kozak translation initiation sequence incorporated at 5´end. Plasmids for codon optimized aequorin and chimeric G proteins were used as described previously. […]
(§5) The transfected cells were detached using PBS supplemented with 0.2% EDTA and rinsed of the culture plates with the assay medium—phenol red free DMEM/F12 with L-glutamine and 15 mM HEPES (PAN Biotech, Wimborne, Dorset, UK), 0.1% BSA (Sigma-Aldrich Co. LLC.) and 1% penicillin/streptomycin (Life Technologies). […] Emitted luminescence signal corresponding to the ligand-induced intracellular Ca^2+ release was recorded for 20 s using the GloMax-Multi+ Detection System (Promega). […]

foregut and hindgut = assay: Wash-out of contraction inhibition, isolated gut; design: species or system Bombyx mori; settings: washing with the vehicle without the ligands
Protocol: as §3, with “The direction of contractile movement was represented by the color and arrows described in the ‘Direction’ map.” left out, “The number of contractions in 60 s was defined as the ‘contraction frequency’.” left out, “contractions.” for “contractions. The evaluation of visible contraction was defined by giving a threshold at the half length of the observed amplitude. The effect of synthetic peptides was represented by the ratio of the ‘contraction frequency’ at 60–120 s to 120–180 s (%) due to the extendedly various frequencies by individuality; the pharynx (30-40/60s) and hindgut (20-40/60s). This methodology by kymograph is substantially corresponding to the previously used assays for intestinal contraction.”

pharynx = assay: Spontaneous contraction of the pharynx in dissected open larvae; design: species or system Bombyx mori; settings: 10^−9–10^−5 M, 27°C, n = 5
Protocol: as §3, with “The direction of contractile movement was represented by the color and arrows described in the ‘Direction’ map.” left out, “The number of contractions in 60 s was defined as the ‘contraction frequency’.” left out, “contractions.” for “contractions. The evaluation of visible contraction was defined by giving a threshold at the half length of the observed amplitude. The effect of synthetic peptides was represented by the ratio of the ‘contraction frequency’ at 60–120 s to 120–180 s (%) due to the extendedly various frequencies by individuality; the pharynx (30-40/60s) and hindgut (20-40/60s). This methodology by kymograph is substantially corresponding to the previously used assays for intestinal contraction.”

esophagus = assay: Esophageal contraction in intact transparent larvae; assay type: in vivo, Bombyx mori
Protocol: Transparent larvae were prepared by feeding an artificial diet containing 0.05% melamine (Wako Pure Chemical Industries) starting from 0-day-old fifth-instar larvae. […] The visible effect took place in 2-day-old fifth-instar larvae compared to normally fed larvae. The feeding behavioral assay of transparent larva was performed in the same way as that of normal larvae. Each transparent larva was surrounded with a soft sponge and held with both sides by two slide glasses. Transmitted light enabled to illuminate the shape and movement of the shadowed esophagus portion. The contraction of foregut, particularly ‘forward contraction wave’ and ‘peristaltic squeeze’ at the esophagus were observed using a digital microscope to measure the number of contractions per minute. The ‘peristaltic squeezes’ at 8 h and 16 h in non-fed larvae were unmeasurable because of the limit of detection in our observation using digital microscope. 100 μL of distilled water (vehicle control) and 100 μL peptide-containing solution (10^−7–10^−4 M of peptides dissolved in distilled water) were injected dorsolaterally into the hemolymph. After injection, the numbers of contractions per minute of the esophagus were counted from the data of 3 min observation. Statistical analysis was performed using a one-way ANOVA, then a post hoc Dunnett’s test. Reproducibility was confirmed at least twice by assay using different populations of larvae.

BNGR-A16 [9] = assay: aequorin-based bioluminescent calcium assay, CHO cells expressing BNGR-A16; assay type: cell-based, Bombyx mori; settings: aequorin luminescence 20 s, triplicates, three experiments
Protocol: as §4, §5

B. mori larvae [10] = assay: Feeding behavioral assay (latency to first bite), 2-day-old fifth-instar larvae; assay type: in vivo, Bombyx mori; settings: 100 μL injected dorsolaterally into the hemolymph, after 16 h diet deprivation, n = 3
Protocol: A part of the eluents of the fractions from RP-HPLC as well as synthetic peptide solutions was evaporated to dryness and dissolved in 100 μL distilled water just prior to the bioassay. The feeding cycles of 2-day-old fifth-instar B. mori larvae were synchronized by diet deprivation for 16 h. After diet deprivation, the larvae were anesthetized by submerging in icy water for 15 min. Then, 100 μL sample was injected dorsolaterally into the hemolymph. After injection, the larvae were placed in front of artificial diet blocks, and then the latency to their first bites as the initiation of feeding (first bite) after sample-injection was measured as reported previously. Statistical analysis was performed using a one-way analysis of variance (one-way ANOVA), then a post hoc Dunnett’s test. Reproducibility was confirmed at least twice by assays using different populations of larvae.

[11] = 10^−7–10^−4 M, 100 μL injected dorsolaterally, fed ad libitum transparent larvae, counted over 3 min, P < 0.05, n = 5

Substance: short neuropeptide F (sNPF) -2 [sNPF-2]
- effect on feeding initiation, peptides (B. mori larvae [1]): feeding acceleratory effects that can shorten the latency to the initiation of feeding

Substance: neuropeptide F [NPF]
- effect on larval feeding behavior (D. melanogaster [2]): regulate larval feeding behavior

Substance: short neuropeptide F [sNPF]
- effect on food intake and body weight (D. melanogaster [3]): stimulates food intake and body weight gain
- effect on feeding initiation, peptides (B. mori larvae [1]): feeding acceleratory effect
- effect on food intake (Schistocerca. gregaria): an inhibitory effect on food intake

Substance: tachykinin-related peptides [B. mori TRPs]
- effect on feeding initiation, peptides (B. mori larvae [1]): feeding acceleratory effects that can shorten the latency to the initiation of feeding

Substance: Crustacean cardioactive peptide [CCAP]
- effect on gut contraction (gut): multiple roles, including gut contraction

Substance: myosuppressin (leukomyosuppressin)
- effect on spontaneous contraction of the foregut, L. oleracea [4]: regulates spontaneous contraction of the foregut
- effect on spontaneous contraction of the hindgut, L. maderae [5]: regulates spontaneous contraction of the foregut of Lacanobia oleracea [66] and the hindgut of Leucophaea maderae

Substance: allatostatin [AST, reference compound]
- effect on spontaneous contraction of the foregut, H. armigera [6]: regulate spontaneous contraction of the foregut
- effect on spontaneous contraction of the foregut, L. oleracea [4]: regulate spontaneous contraction of the foregut

Substance: allatotropin
- contraction of ileum (movie) (ileum; 10^−6 M exposed at 120 s, larvae fed ad libitum): the contraction of ileum was inhibited
- relative frequency of contraction, ileum, fed ad libitum (ileum; larvae fed ad libitum, 10^−9–10^−5 M, 27°C, 60–120 s vs 120–180 s, n = 5): decreased relative frequency of contraction
- relative frequency of contraction, ileum, non-fed (ileum; larvae non-fed for 16 h, 10^−9–10^−5 M, 27°C, n = 5): decreased the frequency
- AT receptor assignment (BNGR-A16 [7]): the AT receptor is assigned to be BNGR-A16
- effect on spontaneous contraction of the foregut, H. armigera [6]: regulate spontaneous contraction of the foregut
- effect on spontaneous contraction of the foregut, L. oleracea [4]: regulate spontaneous contraction of the foregut
- myoregulatory activity on foregut, midgut and hindgut [8]: myoregulatory activities
- effect on intestinal contractions, other Lepidopteran species (intestinal contractions): stimulatory effect
- affinity, BNGR-A5 (BNGR-A5): much higher affinity to AT than BNGR-A16
- reversibility of inhibition on washing (foregut and hindgut): did not resume even after washing
- relative frequency of contraction, pharynx, fed ad libitum (pharynx; larvae fed ad libitum, 60–120 s vs 120–180 s): decreased relative frequency of contraction
- relative frequency of contraction, pharynx, non-fed (pharynx; larvae non-fed for 16 h): decreased the frequency
- forward contraction wave and peristaltic squeeze (movie) (esophagus; 10^−5 M solution injected dorsolaterally into the hemolymph): the forward contraction wave and peristaltic squeeze were inhibited
- number of forward contraction waves (esophagus; [11]): decreased numbers of forward contraction waves and peristaltic squeezes in a dose-response manner
- number of peristaltic squeezes (esophagus; [11]): decreased numbers of forward contraction waves and peristaltic squeezes in a dose-response manner
- response, BNGR-A16 (BNGR-A16 [9]): response of BNGR-A5 (Fig 3 an arrow) as well as BNGR-A16 to AT
- effect on latency to the first bite, synthetic peptides (B. mori larvae [10]; significant by one-way ANOVA (P < 0.01)): prolonged the latency to the first bite in a dose-dependent manner
- ED50, prolongation of the latency to the first bite (B. mori larvae [10]; synthetic peptides): 1000 nM
